The values that follow are results of earlier work, collected in US20100273275A1, “Methods of determining levels of steroid fractions utilizing SHBG calculations” (priority 2005, published 2010).

Series [1] addresses T1, SHBG (Homo sapiens, UniProt P04278).
T1 sequence (P04278 30-402): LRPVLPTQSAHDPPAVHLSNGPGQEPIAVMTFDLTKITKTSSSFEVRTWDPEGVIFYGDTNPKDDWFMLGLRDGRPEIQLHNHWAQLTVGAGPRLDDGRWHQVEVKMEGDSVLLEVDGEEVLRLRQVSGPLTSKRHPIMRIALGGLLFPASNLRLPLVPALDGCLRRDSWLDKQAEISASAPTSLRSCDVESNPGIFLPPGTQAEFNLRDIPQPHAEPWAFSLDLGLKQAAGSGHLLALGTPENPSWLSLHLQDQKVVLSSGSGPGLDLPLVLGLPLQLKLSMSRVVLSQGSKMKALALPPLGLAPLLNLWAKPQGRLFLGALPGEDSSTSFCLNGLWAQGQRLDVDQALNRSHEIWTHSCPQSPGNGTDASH
As to conditions: for KPS (association constant for SHBG-binding to a steroid ligand): constants used for calculations, Dunn et al. (1981), Moll et al. (1981), Rosner (1991).

Series [2] concerns the target albumin (Homo sapiens, UniProt P02768). As to conditions: for KAS (association constant for albumin-binding to a steroid ligand): constants used for calculations, Dunn et al. (1981), Moll et al. (1981), Rosner (1991).
[3] abbreviates: constant used for free and bioavailable testosterone calculation.

albumin, sequence (P02768 25-609): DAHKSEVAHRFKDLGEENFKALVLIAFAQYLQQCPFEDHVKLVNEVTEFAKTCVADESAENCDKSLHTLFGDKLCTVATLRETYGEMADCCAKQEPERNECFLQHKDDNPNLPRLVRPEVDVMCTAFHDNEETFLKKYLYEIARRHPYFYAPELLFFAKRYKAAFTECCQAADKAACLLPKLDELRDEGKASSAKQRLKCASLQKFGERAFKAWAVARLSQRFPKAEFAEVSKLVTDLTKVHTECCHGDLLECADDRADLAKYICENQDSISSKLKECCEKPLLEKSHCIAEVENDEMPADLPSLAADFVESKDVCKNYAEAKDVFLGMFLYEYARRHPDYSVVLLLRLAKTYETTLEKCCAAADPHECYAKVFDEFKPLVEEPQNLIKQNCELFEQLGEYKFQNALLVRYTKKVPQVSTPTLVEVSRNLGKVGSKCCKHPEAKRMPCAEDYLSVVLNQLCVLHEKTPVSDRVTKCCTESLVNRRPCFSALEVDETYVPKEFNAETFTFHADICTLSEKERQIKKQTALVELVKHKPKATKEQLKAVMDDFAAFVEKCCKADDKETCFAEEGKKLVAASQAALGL

In the case of `C[C@]12CCC(=O)C=C1CC[C@@H]1[C@@H]2CC[C@]2(C)C(=O)CC[C@@H]12` [Androstenedione], the “KPS (association constant for SHBG-binding to a steroid ligand)” value in series [1] was 0.029 [M^−1] × 10^9. Also, the “KAS (association constant for albumin-binding to a steroid ligand)” value (shortened to “KAS”) in series [2] was 20000 [M^−1].
On to `C[C@]12CC[C@H](O)CC1=CC[C@@H]1[C@@H]2CC[C@]2(C)C(=O)CC[C@@H]12` [Dehydroepiandrosterone], for which the “KAS” value in series [2] is 40000 [M^−1].
On to `C[C@]12CC[C@H](O)CC1=CC[C@@H]1[C@@H]2CC[C@]2(C)C(=O)CC[C@@H]12` [Dihydroandrosterone], for which the “KAS” value in series [2] was 180000 [M^−1].
Regarding `C[C@]12CCC(=O)C[C@@H]1CC[C@@H]1[C@@H]2CC[C@]2(C)[C@@H](O)CC[C@@H]12` [Dihydrotestosterone], the “KPS (association constant for SHBG-binding to a steroid ligand)” value in series [1] is 2.0 [M^−1] × 10^9. In series [2], the “KAS” value is 79800 [M^−1].
For `C[C@]12CC[C@H]3[C@@H](CCC4=CC(=O)CC[C@@]43C)[C@@H]1CC[C@@H]2O` [Testosterone], the “KS (association constant, SHBG)” value in series [1] (setting [3]) is 1e+09 L/mol. Besides, in series [2] (setting [3]), the “KA (association constant, albumin)” value was 36000 L/mol. Further, the “KAS” value in series [2] was 36000 [M^−1].
